# Data taken from article PMC8776995 (Frontiers in Chemistry, 2022).
# Several values for one entry are separate records, joined by “and”; a condition that tells them apart may be missing. Equal entries are not always repeated.
# Experiments:
# Format in all cases: cell-based, human
# PC-9 cells [1] = experiment: Annexin V/PI flow cytometry for cell apoptosis, PC-9; design: key to Apoptosis (sum of Q2 and Q3) / Apoptosis, Average: % apoptotic cells (Annexin V/PI flow cytometry); details: for Apoptosis, Average / Apoptosis (sum of Q2 and Q3) / Lymphocytes/Q2: FITC-A+ , PI-A+ Freq. of Parent / Lymphocytes/Q3: FITC-A+ , PI-A- Freq. of Parent: PC-9, 48h; for Apoptosis, Average: average of three repeats; for Apoptosis (sum of Q2 and Q3): single repeats (Repeat 1-3); for Lymphocytes/Q2: FITC-A+ , PI-A+ Freq. of Parent / Lymphocytes/Q3: FITC-A+ , PI-A- Freq. of Parent: single runs
# Experimental: (§1) To establish whether the antiproliferative efficacy is associated with apoptosis, PC-9 and H460 cells were treated with compound e4 or e12 of various concentrations (4, 8 and 12 μM) for 48 h, and then assessed with flow cytometry.
# (§2) Cell-apoptosis analysis was carried out by flow cytometry using the Annexin V/PI apoptosis kit according to the manufacturer’s manual. Briefly, PC-9 or H460 (3 × 10^4–5 × 10^4/well) cells were seeded in 12-well plates for 24 h, and then treated with 0.1% DMSO (as control) or various concentrations of compound e4 or e12 for 48 h, respectively. Cells were harvested, washed with PBS, and then incubated with 100ul of 1X Annexin V binding buffer containing 1 μl PI and 1 μl FITC Annexin V for 15 min at RT in the dark. 200 µl of 1X binding buffer were added to each tube for flow cytometry analysis (BD LSRFortessa™ Flow Cytometer). The percentages of apoptotic cells were analyzed using FlowJo soft.
# H460 cells [2] = experiment: Annexin V/PI flow cytometry for cell apoptosis, H460; details: for Percentage of apoptosis, Average: average of three runs; for Q2+Q3 / Lymphocytes/Q2: FITC-A+ , PI-A+ Freq. of Parent / Lymphocytes/Q3: FITC-A+ , PI-A- Freq. of Parent / Percentage of apoptosis: single runs; for Q2+Q3: given as fraction; for Lymphocytes/Q2: FITC-A+ , PI-A+ Freq. of Parent / Lymphocytes/Q3: FITC-A+ , PI-A- Freq. of Parent / Percentage of apoptosis: time as in file name (24h, 48h or not given)
# Experimental: as §1, §2
# PC-9 cells [3] = experiment: Hoechst 33342 staining for cell apoptosis; details: PC-9, various concentrations, 48 h, vs 0.1% DMSO
# Experimental: To further verify the impact of compounds e4 and e12 on apoptosis of NSCLC cells, PC-9 cells were treated with either compound e4 or e12 at various concentrations for 48 h and then stained with dye Hoechst 33342.
# PC-9 cells were seeded in 96-well plates, then treated with 0.1% DMSO (as control) or various concentrations of compound e4 or e12 for 48 h. Culture medium from the cells was removed and replaced with medium containing dye Hoechst 33342. Cells were incubated at 37°C for 5–15 min, washed with PBS twice, and then observed and imaged under the Nikon Ti-U microscope.
# PC-9 cells [4] = experiment: Flow cytometry detection for cell cycle, PC-9; details: for G0/G1 / G2/M / S: single repeats (Repeat 1-3)
# Experimental: (§3) To investigate the effects of compounds e4 and e12 on various phases of the cell cycle, PC-9 cells were treated with compound e4 or e12 of various concentrations for 24 h, and H460 cells were treated with compound e4 or e12 of various concentrations for 12 h.
# (§4) PC-9 or H460 (2 × 10^5–3 × 10^5/well) cells were seeded in six-well plates for 24 h, and then treated with 0.1% DMSO (as control), various concentrations of either compound e4 or e12 for 24 h (PC-9) or 12 h (H460), respectively. The treated cells were harvested, washed with PBS, and then stained using the cell-cycle staining kit according to the manufacturer’s manual. The distribution of cell-cycle phases with different DNA contents was determined by flow cytometry (BD LSRFortessa™ Flow Cytometer) and analyzed using ModFit LT software.
# H460 cells [5] = experiment: Flow cytometry detection for cell cycle, H460; details: single experiments (20200711, 20200810, 20200812)
# Experimental: as §3, §4
compound,measurement,setting,value
"COCCOc1cc2ncnc(Nc3cccc(-c4cn(-c5ccc(C)cc5)nn4)c3)c2cc1OCCOC [e12, [6,7-Bis-(2-methoxy-ethoxy)-quinazolin-4-yl]-[3-(1-p-tolyl-1H-[1,2,3]triazol-4-yl)-phenyl]-amine]",cell apoptosis (flow cytometry),"PC-9 cells [1]; PC-9, 4, 8 and 12 μM, 48 h",significant cell apoptosis
same,"Apoptosis, Average",PC-9 cells [1]; 4uM,13.94
same,Apoptosis (sum of Q2 and Q3),PC-9 cells [1]; 4uM,15.01 and 16.36 and 10.45
same,"Lymphocytes/Q2: FITC-A+ , PI-A+ Freq. of Parent",PC-9 cells [1]; 4uM,14.50% and 15.4% and 9.81%
same,"Lymphocytes/Q3: FITC-A+ , PI-A- Freq. of Parent",PC-9 cells [1]; 4uM,0.51% and 0.96% and 0.64%
same,"Apoptosis, Average",PC-9 cells [1]; 8uM,12.92
same,Apoptosis (sum of Q2 and Q3),PC-9 cells [1]; 8uM,13.98 and 12.64 and 12.13
same,"Lymphocytes/Q2: FITC-A+ , PI-A+ Freq. of Parent",PC-9 cells [1]; 8uM,12.60% and 10.6% and 10.7%
same,"Lymphocytes/Q3: FITC-A+ , PI-A- Freq. of Parent",PC-9 cells [1]; 8uM,1.38% and 2.04% and 1.43%
same,"Apoptosis, Average",PC-9 cells [1]; 12uM,29.21
same,Apoptosis (sum of Q2 and Q3),PC-9 cells [1]; 12uM,24.77 and 29.39 and 33.48
same,"Lymphocytes/Q2: FITC-A+ , PI-A+ Freq. of Parent",PC-9 cells [1]; 12uM,20.50% and 25.9% and 29.5%
same,"Lymphocytes/Q3: FITC-A+ , PI-A- Freq. of Parent",PC-9 cells [1]; 12uM,4.27% and 3.49% and 3.98%
same,"Percentage of apoptosis, Average","H460 cells [2]; H460, 4uM",14.68%
same,Q2+Q3,"H460 cells [2]; H460, 4uM",0.149
same,"Lymphocytes/Q2: FITC-A+ , PI-A+ Freq. of Parent","H460 cells [2]; H460, 4uM",8.07% and 10.30% and 7.57%
same,"Lymphocytes/Q3: FITC-A+ , PI-A- Freq. of Parent","H460 cells [2]; H460, 4uM",6.83% and 3.75% and 7.52%
same,Percentage of apoptosis,"H460 cells [2]; H460, 4uM",14.9% and 14.05% and 15.09%
same,"Percentage of apoptosis, Average","H460 cells [2]; H460, 8uM",16.0567%
same,Q2+Q3,"H460 cells [2]; H460, 8uM",0.1436
same,"Lymphocytes/Q2: FITC-A+ , PI-A+ Freq. of Parent","H460 cells [2]; H460, 8uM",7.09% and 10.30% and 10.90%
same,"Lymphocytes/Q3: FITC-A+ , PI-A- Freq. of Parent","H460 cells [2]; H460, 8uM",7.27% and 6.59% and 6.02%
same,Percentage of apoptosis,"H460 cells [2]; H460, 8uM",14.36% and 16.89% and 16.92%
same,"Percentage of apoptosis, Average","H460 cells [2]; H460, 12uM",28.7833%
same,Q2+Q3,"H460 cells [2]; H460, 12uM",0.213
same,"Lymphocytes/Q3: FITC-A+ , PI-A- Freq. of Parent","H460 cells [2]; H460, 12uM",10.9% and 9.22% and 9.03%
same,Percentage of apoptosis,"H460 cells [2]; H460, 12uM",21.3% and 31.62% and 33.43%
same,cell apoptosis (flow cytometry),"H460 cells [2]; H460, 4, 8 and 12 μM, 48 h",significant cell apoptosis
same,"apoptotic morphology, Hoechst 33342 staining",PC-9 cells [3],exhibited features typical of apoptosis
same,G0/G1,"PC-9 cells [4]; PC-9, 4uM",56.16 and 54.85 and 57.63
same,G2/M,"PC-9 cells [4]; PC-9, 4uM",17.84 and 17.98 and 15.19
same,S,"PC-9 cells [4]; PC-9, 4uM",26.01 and 27.17 and 27.19
same,G0/G1,"PC-9 cells [4]; PC-9, 8uM",53.08 and 54.06 and 56.12
same,G2/M,"PC-9 cells [4]; PC-9, 8uM",20.06 and 19.34 and 16.67
same,S,"PC-9 cells [4]; PC-9, 8uM",26.86 and 26.6 and 27.1
same,G0/G1,"PC-9 cells [4]; PC-9, 12uM",56.88 and 57.79 and 60.22
same,G2/M,"PC-9 cells [4]; PC-9, 12uM",21.27 and 20.78 and 17.44
same,S,"PC-9 cells [4]; PC-9, 12uM",21.85 and 21.43 and 22.34
same,percentage of cells in the G0/G1 phase,"PC-9 cells [4]; PC-9, various concentrations, 24 h",induced higher percentages
same,G0/G1,"H460 cells [5]; H460, 4uM",46.77% and 59.95%
same,G2/M,"H460 cells [5]; H460, 4uM",19.08% and 18.32% and 13.33%
same,S,"H460 cells [5]; H460, 4uM",34.15% and 35.36% and 26.72%
same,G0/G1,"H460 cells [5]; H460, 8uM",49.59% and 63.38%
same,G2/M,"H460 cells [5]; H460, 8uM",16.88% and 18.32% and 11.47%
same,S,"H460 cells [5]; H460, 8uM",33.54% and 35.36% and 25.15%
